# Assay results: patent US8470334B2, “Method of inducing an antiviral immune response against HIV-1 utilizing chimeric HIV Env proteins comprising CD4 mini-proteins or CD4 mimetics” (Novartis Vaccines & Diagnostics, Inc, priority 2002, dated 2013)
# Molecular target: gp120 (Human immunodeficiency virus type 1 group M subtype B, UniProt P04578)
# Test: competitive ELISA of gp120 binding
# Design: species or system HIV-1
# Details: as compared to previous double mutant (CD4M8)
# Text: In a second step, each putatively active side chain of the miniprotein was replaced by an Ala residue (“Ala scanning”).
compound,measurement,value
CC(C)C[C@@H]1NC(=O)CNC(=O)[C@H](CC(C)C)NC(=O)[C@H](CO)NC(=O)[C@H](CCCCN)NC(=O)[C@@H]2CSSC[C@@H](C(=O)NCC(=O)N3CCC[C@H]3C(=O)O)NC(=O)[C@H](C)NC(=O)[C@@H]3CSSC[C@H](NC(=O)[C@H](CCCNC(=N)N)NC(=O)[C@H](C)NC(=O)[C@H](CC(C)C)NC(=O)[C@H](CC(N)=O)NC(=O)[C@@H](N)CSSC[C@H](NC(=O)[C@H](CCCCN)NC(=O)CNC(=O)[C@H](CC(C)C)NC1=O)C(=O)N[C@@H](C)C(=O)NCC(=O)N[C@@H](CO)C(=O)N[C@@H](Cc1ccccc1)C(=O)N3)C(=O)N[C@@H](CCC(N)=O)C(=O)N[C@@H](CC(C)C)C(=O)N[C@@H](CCCNC(=N)N)C(=O)N2 [CD4M9],further increase of binding affinity,ten-fold
